# Results published in patent publication US20100099762A1, “COMBINATION THERAPY” (THE MENTAL HEALTH RESEARCH INSTITUTE OF VICTORIA, priority 2006, published 2010).
# Marks after values point to notes of the source that are not given here.
# What was measured:
# [1] = in vivo; cited from earlier work
# [2] = tested on: schizophrenia; experiment: Randomised double blind multicentre placebo controlled trial of NAC in combination with an antipsychotic agent in schizophrenia; type: in vivo, human
# Source text: There is preclinical evidence of a reduction in antioxidant defences in schizophrenia, particularly a reduction in glutathione, which is a primary endogenous antioxidant defence. N-acetyl cysteine (NAC) is a bioavailable precursor of glutathione. This Example is a randomised double blind multicentre placebo controlled trial of the use of NAC in combination with an antipsychotic agent in the treatment of schizophrenia. A total of 140 individuals were randomised to receive 2 g daily of NAC in two divided doses, or placebo, together with their normal dosage of antipsychotic agent.
# Participants were assigned randomly and consecutively to treatment with NAC or placebo in a double blind fashion. The randomisation log was generated by an independent individual using the traditional coin tossing method. The investigators and clinicians remained blind until data analysis was completed. The person generating the randomisation schedule was not involved in participant interviews, either for participant eligibility or outcome measurements.
# All participants remained on their usual antipsychotic medication for the duration of the trial. The dose of the primary therapy was monitored. Participants were recruited through advertisements, referral by case clinicians and through database screening. All participants provided written informed consent as part of complying with the protocol.
# All randomised participants received two NAC (500 mg) capsules twice daily, to a total dose of 2 g daily, or matching placebo capsules. Human dosing can be up to 5 g/day without adverse effects (Louwerse E. S. et al., 1995). A daily dose that is within the range of efficacy in published clinical trials (Adair J. C. et al., 2001, Van Schooten F. J. et al., 2002, and Behr J, et al., 2002) was selected. Once per day dosing is desirable in the drug treatment of schizophrenia, where medication compliance is known to be a challenge in management. However, steady state plasma levels cannot be achieved with a once daily oral dose of NAC as the plasma half-life is only 2-3 hours (Holdiness M. R., 1991 and Kelly G. S., 1998). While a twice-daily (BID) dosing regimen would also not be expected to achieve steady state plasma levels, dose intervals beyond BID were considered to markedly increase the risk of non-compliance in this population.
# To be included, the patients were required to meet Diagnostic and Statistical Manual of Mental Disorders, fourth edition (DSM-IV) (Association AP, 1994) criteria for schizophrenia and have a PANSS total score of ≧55, or at least two items in the positive and/or negative items being >3, or have a CGI-S≧3. They needed to have the capacity to consent to the study, and be aged between 18 and 65. Both inpatients and outpatients were eligible. Participants needed to be currently taking an antipsychotic agent and to be utilising effective contraception if female and of childbearing age. Exclusion criteria included patients with abnormal renal, hepatic, thyroid or haematological findings, patients with a systemic medical disorder including asthma, allergies or any history of bronchospasm, respiratory insufficiency and recent gastrointestinal ulcers and females who were positive on pregnancy screening testing at baseline. Participants who were taking a mood stabiliser (e.g. lithium, valproate and carbamazepine) were excluded as were those currently taking drugs that are known to prevent GSH depletion (500+mg of NAC/day, 200+ug of selenium/day or 500+IU of Vitamin E/day).
# Withdrawal from the trial occurred if participants ceased taking their trial medication for seven consecutive days, or ceased effective contraception, or became pregnant. A change in primary antipsychotic from one medication to another required participants to be withdrawn from the study. Similarly, the addition of a mood stabiliser required withdrawal of the participant. Dose changes to existing medications were not an exclusion criterion, and this was monitored. […]
# [3] = baseline to week 8, LOCF ANCOVA
# [4] = baseline to week 24, LOCF ANCOVA
# [5] = baseline to week 24, LOCF ANCOVA with treatment by investigator interaction
# [6] = score at week 24, end of treatment
compound,measurement,setting,value
"CC(=O)N[C@@H](CS)C(=O)O [NAC, N-acetyl cysteine]",Human dosing without adverse effects,[1],up to 5 g/day
same,"Number of patients with clinician-observed improvement (CGI-S), NAC group versus placebo group",[2]; 16 weeks of treatment,more than two-fold greater
same,Range of CGI-S improvement from baseline in improved subjects,[2]; 16 weeks of treatment,1-3 points
same,"Effects on safety parameters, including vital signs, weight and clinical biochemistry values",[2]; 24 weeks NAC 2 g daily,no significant effects
same,"GAF mean overall change from baseline to endpoint, NAC treatment group","[2]; ANCOVA, within-group",+4.5 points
same,"PANSS scales, NAC versus placebo over all visits",[2]; MMRM,did not detect a significant difference
same,PANSS-Negative items 3 and 6 over all visits,[2]; MMRM of individual items,significant (p<0.05) benefit
same,Individual PANSS items at specific visits,"[2]; MMRM of individual items, weeks 2, 4, 8, 16, 20, 24",significant (p<0.05) improvements on several items
same,"GAF average improvement over all visits, NAC group","[2]; MMRM, within-group",+3.1 points
same,CGI-S: Within NAC Group Week 8 Mean Overall Change (95% CI),"[2]; NAC 2 g daily plus usual antipsychotic, baseline to week 8, LOCF ANCOVA","−0.32 (−0.48, −0.15)**"
same,Mean gain in weight at week 24,"[2]; NAC group, n=33",0.394 kg
same,Mean weight gain at week 8,"[2]; NAC group, n=43",1.372 kg
same,"Functioning as measured by the GAF scale or the SOFAS, between groups",[2]; NAC versus placebo,no between-group differences
same,Effect size (Cohen's d statistic) on the BAS,[2]; after 24 weeks of NAC treatment,0.44
same,BAS: Within NAC Group Week 8 Mean Overall Change (95% CI),"[2]; akathisia, baseline to week 8, LOCF ANCOVA","−0.23 (−0.58, 0.11)"
same,BAS: Within NAC Group Week 24 Mean Overall Change (95% CI),"[2]; akathisia, baseline to week 24, LOCF ANCOVA","−0.42 (−0.77, −0.06)*"
same,AIMS: Within NAC Group Week 8 Mean Overall Change (95% CI),[2]; [3],"0.08 (−0.48, 0.65)"
same,GAF: Within NAC Group Week 8 Mean Overall Change (95% CI),[2]; [3],"2.7 (0.22, 5.3)*"
same,PANSS General: Within NAC Group Week 8 Mean Overall Change (95% CI),[2]; [3],"−1.7 (−3.2, −0.26)*"
same,PANSS Negative: Within NAC Group Week 8 Mean Overall Change (95% CI),[2]; [3],"−0.18 (−1.2, 0.82)"
same,PANSS Positive: Within NAC Group Week 8 Mean Overall Change (95% CI),[2]; [3],"−1.6 (−2.6, −0.64)*"
same,PANSS Total: Within NAC Group Week 8 Mean Overall Change (95% CI),[2]; [3],"−3.6 (−6.3, −0.90)*"
same,SAS: Within NAC Group Week 8 Mean Overall Change (95% CI),[2]; [3],"−0.05 (−0.30, 0.21)"
same,SOFAS: Within NAC Group Week 8 Mean Overall Change (95% CI),[2]; [3],"−0.25 (−3.5, 3.0)"
same,AIMS: Within NAC Group Week 24 Mean Overall Change (95% CI),[2]; [4],"−0.44 (−1.03, 0.16)"
same,CGI-S: Within NAC Group Week 24 Mean Overall Change (95% CI),[2]; [4],"−0.35 (−0.56, −0.14)*"
same,GAF: Within NAC Group Week 24 Mean Overall Change (95% CI),[2]; [4],"4.5 (1.5, 7.5)*"
same,PANSS Positive: Within NAC Group Week 24 Mean Overall Change (95% CI),[2]; [4],"−2.3 (−3.49, −1.09)**"
same,SAS: Within NAC Group Week 24 Mean Overall Change (95% CI),[2]; [4],"−0.17 (−0.46, 0.13)"
same,SOFAS: Within NAC Group Week 24 Mean Overall Change (95% CI),[2]; [4],"−0.69 (−4.99, 3.6)"
same,PANSS General: Within NAC Group Week 24 Mean Overall Change (95% CI),[2]; [5],"−4.4 (−6.39, −2.48)^d**"
same,PANSS Negative: Within NAC Group Week 24 Mean Overall Change (95% CI),[2]; [5],"−1.6 (−2.71, −0.46)^d"
same,PANSS Total: Within NAC Group Week 24 Mean Overall Change (95% CI),[2]; [5],"−8.8 (−12.2, −5.5)^d**"
same,"Adverse events, NAC group compared to placebo group",[2]; checklist of 44 somatic items,No reported event was significantly more common
same,"Eye irritation, NAC treatment group compared to placebo",[2]; checklist of 44 somatic items,significantly less
same,"SAS or AIMS scores, placebo versus NAC over all visits",[2]; over all visits,no significant differences
same,CGI-I: Within NAC Group Week 8 Mean (95% CI),"[2]; score at that time point (no baseline score), week 8, NAC 2 g daily plus antipsychotic","3.1 (2.9, 3.4)"
same,CGI-I: Within NAC Group Week 24 Mean (95% CI),"[2]; score at that time point (no baseline score), week 24","2.9 (2.6, 3.1)"
same,CGI-I: NAC Mean (95% CI) at post-treatment discontinuation,"[2]; score at that time point, washout, week 28","2.9 (2.5, 3.4)"
same,AIMS: NAC Mean Week 24 (SD),[2]; [6],2.2 (3.5)
same,BAS: NAC Mean Week 24 (SD),[2]; [6],0.42 (0.93)
same,CGI-I: NAC Mean Week 24 (SD),[2]; [6],2.9 (0.93)
same,CGI-S: NAC Mean Week 24 (SD),[2]; [6],3.5 (1.0)
same,GAF: NAC Mean Week 24 (SD),[2]; [6],54.4 (15.4)
